Laboratory results: PubChem BioAssay (NCI)
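In this assay, cells in 96-well plates receive the compound at five concentrations for 48 hours. Endpoints are linearly interpolated between the surrounding concentrations. GI50 = concentration required for 50% inhibition of growth. TGI is the concentration that stops growth completely.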

Tests used:
Experiment in all cases: NCI tumour cell line growth inhibition, 48 h
BT-549 breast = tested on: BT-549 breast
PC-3 prostate = tested on: PC-3 prostate
RPMI-8226 leukemia = tested on: RPMI-8226 leukemia
MDA-MB-231 breast = tested on: MDA-MB-231 breast
KM20L2 colon = tested on: KM20L2 colon
DLD-1 colon = tested on: DLD-1 colon
DMS 273 small cell lung = tested on: DMS 273 small cell lung
HOP-18 NSCLC = tested on: HOP-18 NSCLC
LXFL 529 NSCLC = tested on: LXFL 529 NSCLC
M19-MEL melanoma = tested on: M19-MEL melanoma
SNB-78 CNS = tested on: SNB-78 CNS
DMS 114 small cell lung = tested on: DMS 114 small cell lung
XF 498 CNS = tested on: XF 498 CNS
RXF-631 renal = tested on: RXF-631 renal

Row | Structure (SMILES) | TGI (BT-549 breast) [µM] | TGI (PC-3 prostate) [µM] | TGI (RPMI-8226 leukemia) [µM] | TGI (MDA-MB-231 breast) [µM] | other results
1 | Cc1ccc(S(=O)(=O)N2c3ccccc3[C@H]3CCc4c([nH]c5ccccc45)[C@H]32)cc1 | > 100 | > 100 | > 100 | > 100 | –
2 | CC(C)OC(=O)Nc1cccc(Cl)c1 | > 100 | > 100 | > 100 | > 100 | –
3 | CC1=C(C#N)C23C(=O)c4ccccc4C(O)=C2C(=O)C=CC3(O)N1 (stereo not given) | 3.38 | 28.7 | – | 43.5 | –
4 | CO[C@H]1ON=C(c2c(C)cc(C)cc2C)[C@@H]1C1(c2ccccc2)ON=C(c2c(C)cc(C)cc2C)O1 (stereo not given in full) | – | – | > 100 | – | TGI (KM20L2 colon): > 100 µM; TGI (DLD-1 colon): > 100 µM; TGI (DMS 273 small cell lung): > 100 µM; TGI (HOP-18 NSCLC): > 100 µM; TGI (LXFL 529 NSCLC): > 100 µM; TGI (M19-MEL melanoma): > 100 µM; TGI (SNB-78 CNS): > 100 µM
5 | CN1C(=O)CN2C(Cl)(Cl)C2(c2ccccc2F)c2cc([N+](=O)[O-])ccc21 (stereo not given) | – | – | > 100 | – | TGI (DMS 114 small cell lung): > 100 µM; TGI (KM20L2 colon): > 100 µM; TGI (DLD-1 colon): > 100 µM; TGI (DMS 273 small cell lung): > 100 µM; TGI (LXFL 529 NSCLC): > 100 µM; TGI (M19-MEL melanoma): > 100 µM
6 | Cn1cc(-c2csc(-c3cn(C)c4ccc(Br)cc34)n2)c2cnccc21 | – | 3.02 | – | 3.09 | GI50 (PC-3 prostate): 1.55 µM; GI50 (MDA-MB-231 breast): 1.66 µM
7 | COc1ccc(CC2c3cc(OC)c(OC)c(OC)c3CC[N+]2(C)C)cc1Oc1ccc(CC2c3cc4c(c(OC)c3CC[N+]2(C)C)OCO4)cc1 (stereo not given) | > 100 | > 100 | – | > 100 | –
8 | CC(=O)OCc1ccc2oc(=O)c(C(=O)Oc3cccc(Cl)c3)cc2c1 | > 100 | 34.4 | > 100 | 98.8 | –
9 | CCCCC(C(=O)N/N=C/c1ccc([N+](=O)[O-])o1)C(=O)N/N=C/c1ccc([N+](=O)[O-])o1 | 17.2 | 14.4 | 3.18 | 12 | –
10 | [O-]c1c[n+](CCCC[n+]2cc([O-])on2)no1 | > 100 | > 100 | > 100 | > 100 | –
11 | c1ccc(CSC2(SCc3ccccc3)CCCC2)cc1 | – | > 10 | > 10 | > 10 | –
12 | c1ccc(CSc2ccccc2CN2CCN(Cc3ccccc3SCc3ccccc3)CCN(Cc3ccccc3SCc3ccccc3)CC2)cc1 | 4.1 | 2.52 | 18 | 3.16 | –
13 | C1CCC(OCc2nnn3c2CCC3)OC1 (stereo not given) | – | – | – | – | TGI (KM20L2 colon): > 100 µM; TGI (DLD-1 colon): > 100 µM; TGI (XF 498 CNS): > 100 µM; TGI (LXFL 529 NSCLC): > 100 µM; TGI (M19-MEL melanoma): > 100 µM; TGI (SNB-78 CNS): > 100 µM
14 | NC(=O)c1ccc(NS(=O)(=O)c2ccc(N)cc2)nc1 | > 100 | > 100 | > 100 | > 100 | –
15 | COC(=O)C(=O)C(C(=O)C1=NS(=O)(=O)c2cc(S(N)(=O)=O)c(Cl)cc2N1)c1nc2ccc(C(=O)c3ccccc3)cc2[nH]c1=O (stereo not given) | – | – | > 100 | – | TGI (KM20L2 colon): > 100 µM; TGI (DMS 273 small cell lung): > 100 µM; TGI (XF 498 CNS): > 100 µM; TGI (HOP-18 NSCLC): > 100 µM; TGI (LXFL 529 NSCLC): > 100 µM; TGI (RXF-631 renal): > 100 µM; TGI (M19-MEL melanoma): > 100 µM; TGI (SNB-78 CNS): > 100 µM
16 | Nc1nc(Cl)cc(NCCCNc2cc(Cl)nc(N)n2)n1 | – | – | > 100 | – | TGI (DMS 114 small cell lung): > 100 µM; TGI (KM20L2 colon): > 100 µM; TGI (DLD-1 colon): > 100 µM; TGI (DMS 273 small cell lung): > 100 µM; TGI (XF 498 CNS): > 100 µM; TGI (HOP-18 NSCLC): > 100 µM; TGI (LXFL 529 NSCLC): > 100 µM; TGI (RXF-631 renal): > 100 µM; TGI (M19-MEL melanoma): > 100 µM
17 | CCN1CCN(c2nc3ccccc3nc2C(=O)c2ccc(OC)cc2)CC1 | – | > 100 | 43.7 | – | –
18 | CS/C(C#N)=C(\C#N)SC | – | 62.2 | > 100 | 89.6 | –
19 | C=CCc1c(C)nc(C)nc1N/N=C/C=C/c1ccccc1 | 63.2 | > 100 | 74.9 | > 100 | –
20 | CNC1C(O)C(NC)C2OC3(O)C(=O)CC(C)OC3OC2C1O (stereo not given) | > 100 | > 100 | > 100 | > 100 | –
21 | CN(C)CC1CCCC(CN2CCCCC2)C1=O (stereo not given) | 28.7 | 29 | 1.29 | 28.3 | TGI (DMS 114 small cell lung): > 23.4 µM; TGI (KM20L2 colon): 41.6 µM; TGI (DLD-1 colon): 8.92 µM; TGI (DMS 273 small cell lung): 54.9 µM; TGI (HOP-18 NSCLC): 4.71 µM; TGI (M19-MEL melanoma): 34.7 µM; TGI (SNB-78 CNS): 23.9 µM
22 | CN(C)CCCNC(=O)c1cc(NC(=O)c2cc(NS(=O)(=O)c3ccc4c(c3)C(=O)c3ccccc3C4=O)cn2C)cn1C | > 100 | > 100 | > 100 | > 100 | –
23 | Cc1cc(S(=O)(=O)NC(=C(C#N)C#N)[n+]2ccc(N(C)C)cc2)c([S-])cc1Cl | > 100 | > 100 | > 100 | > 100 | –
24 | Cc1ccccc1[P+](C)(c1ccccc1C)c1ccccc1C | 63.1 | 55.2 | 3.96 | 35.2 | –
25 | C=C1C(=O)OC2/C=C(\C)C3OC3/C=C(/C(=O)OC)C(O)C(OC(=O)C3(C)OC3C)C12 (stereo not given) | – | – | – | – | TGI (DMS 114 small cell lung): 1.94 µM; TGI (DLD-1 colon): 2.94 µM; TGI (DMS 273 small cell lung): 3.02 µM; TGI (LXFL 529 NSCLC): 2.8 µM; TGI (SNB-78 CNS): 3.97 µM
26 | CC(N)C(=O)OCN1C(=O)C2C3C=CC(C2C1=O)C1C2C(=O)N(COC(=O)C(C)N)C(=O)C2C31 (stereo not given) | – | – | 54.9 | – | TGI (DMS 114 small cell lung): 36.5 µM; TGI (KM20L2 colon): 72.2 µM; TGI (DLD-1 colon): 54.4 µM; TGI (DMS 273 small cell lung): 36.7 µM; TGI (XF 498 CNS): 47.5 µM; TGI (HOP-18 NSCLC): > 100 µM; TGI (LXFL 529 NSCLC): 60.8 µM; TGI (M19-MEL melanoma): 40 µM; TGI (SNB-78 CNS): > 100 µM
27 | Cc1nc2c(O)cc3c4c(=O)n(C)c(=O)n(C)c4n(Cc4ccccc4)c3c2nc1C | – | 31.2 | 51.8 | 38.2 | –
